Source: PubChem BioAssay AID300 (DTP/NCI, 2004)
Values joined by “and” are separate entries in the source; they are usually repeats but may differ in a detail not shown here. Equal entries are not always repeated. Results filed as inconclusive are left out. How the source made its calls: active means survival T/C of 150% or more; inactive means T/C below 125% in these data. *1 amine or outer side, *2 acyl side, *3 side chain or, on linkers, in order; H or OH if unused. Where a SMILES comes first, the peptide text is derived from it. Bridges are numbered along the chain shown (N, C = ends). Roman numbers before positions name the chains, in order. [ ]: non-standard residue; d: D form. Actinocin(9to1) = Cc1c2oc3c(C)ccc(C(=O)[*:1])c3nc-2c(C(=O)[*:2])c(N)c1=O; aThr = C[C@H](O)[C@H](N)C(=O)O; NMeV = CN[CH](C(=O)O)C(C)C; Sar = CNCC(=O)O

Test system: Madison 109 lung carcinoma i.m., mice, median survival
Test: NCI In Vivo Anticancer Drug Screen. Data for tumor model Madison 109 Lung Carcinoma (intramuscular) in unknown mice
Settings: endpoint: median survival time, higher = longer survival
Method: The antitumor activity of compounds was measured in mice bearing transplantable tumors. Survival or tumor size were measured and the results are expressed as the measurement made in the treated group (T) divided by the measurement made in the vehicle treated control group (C). The tumor model used in this assay is Madison 109 Lung Carcinoma (intramuscular) in unknown mice

[1] = dose: 1.0 mg/kg/injection, schedule: Q01DX009 (ip), vehicle: saline
[2] = dose: 0.2 mg/kg/injection, schedule: Q01DX009 (ip), vehicle: saline
[3] = dose: 0.4 mg/kg/injection, schedule: Q01DX009 (ip), vehicle: saline
[4] = dose: 0.8 mg/kg/injection, schedule: Q01DX009 (ip), vehicle: saline
[5] = dose: 0.05 mg/kg/injection, schedule: Q01DX009 (ip), vehicle: water
[6] = dose: 0.1 mg/kg/injection, schedule: Q01DX009 (ip), vehicle: water
[7] = dose: 0.2 mg/kg/injection, schedule: Q01DX009 (ip), vehicle: water

Measured: T/C

CC1CCC(NC(=O)N(CCCl)N=O)CC1 (stereo not given)
inactive: dose: 0.5 mg/kg/injection, schedule: Q01DX009 (ip), vehicle: saline 100 % of control | [1] 93 % of control | dose: 2.0 mg/kg/injection, schedule: Q01DX001 (ip), vehicle: saline 88 % of control | dose: 2.0 mg/kg/injection, schedule: Q01DX009 (ip), vehicle: saline 95 % of control | dose: 4.0 mg/kg/injection, schedule: Q01DX001 (ip), vehicle: saline 90 % of control | dose: 4.0 mg/kg/injection, schedule: Q01DX009 (ip), vehicle: saline 107 % of control | dose: 8.0 mg/kg/injection, schedule: Q01DX001 (ip), vehicle: saline 93 % of control | dose: 8.0 mg/kg/injection, schedule: Q01DX009 (ip), vehicle: saline 115 % of control | dose: 16.0 mg/kg/injection, schedule: Q01DX001 (ip), vehicle: saline 100 % of control | dose: 32.0 mg/kg/injection, schedule: Q01DX001 (ip), vehicle: saline 106 % of control

COc1cc2c(c(OC)c1OC)-c1ccc(OC)c(=O)cc1[C@@H](NC(C)=O)CC2
inactive: dose: 0.06 mg/kg/injection, schedule: Q01DX009 (ip), vehicle: water 100 % of control | dose: 0.12 mg/kg/injection, schedule: Q01DX009 (ip), vehicle: water 90 % of control | dose: 0.24 mg/kg/injection, schedule: Q01DX009 (ip), vehicle: water 100 % of control

CO[C@@]12[C@H](COC(N)=O)C3=C(C(=O)C(C)=C(N)C3=O)N1C[C@@H]1N[C@@H]12
inactive: dose: 0.1 mg/kg/injection, schedule: Q01DX009 (ip), vehicle: saline 106 % of control | [2] 96 % of control | [3] 108 % of control | [4] 109 % of control

O=C(O)CCCc1ccc(N(CCCl)CCCl)cc1
inactive: dose: 1.5 mg/kg/injection, schedule: Q01DX009 (ip), vehicle: saline 105 % of control

CC1OC(O[C@H]2/C=C/C=C/C=C/C=C/C=C/C=C/C=C/[C@H](C)[C@@H](O)[C@@H](C)[C@H](C)OC(=O)C[C@H](O)C[C@H](O)CC[C@@H](O)[C@H](O)C[C@H](O)C[C@]3(O)C[C@H](O)[C@@H](C(=O)O)[C@H](C2)O3)C(O)C(N)C1O (stereo not given in full)
inactive: dose: 6.25 mg/kg/injection, schedule: Q01DX009 (ip), vehicle: saline with Tween-80 108 % of control | dose: 12.5 mg/kg/injection, schedule: Q01DX009 (ip), vehicle: saline with Tween-80 118 % of control | dose: 25.0 mg/kg/injection, schedule: Q01DX009 (ip), vehicle: saline with Tween-80 88 % of control | dose: 50.0 mg/kg/injection, schedule: Q01DX009 (ip), vehicle: saline with Tween-80 110 % of control | dose: 100.0 mg/kg/injection, schedule: Q01DX009 (ip), vehicle: saline with Tween-80 93 % of control

CN(C)/N=N/c1nc[nH]c1C(N)=O
inactive: dose: 200.0 mg/kg/injection, schedule: Q01DX009 (ip), vehicle: Klucel (hydroxypropylcellulose) (HPC) 121 % of control

CC(=O)c1cccc(NC2C(N)C(NC(=O)N(C)C)(C(C)O)C(C)(O)C2(O)COC(=O)c2c(C)cccc2O)c1 (stereo not given)
inactive: dose: 0.05 mg/kg/injection, schedule: Q01DX009 (ip), vehicle: other 111 % of control | dose: 0.3 mg/kg/injection, schedule: Q01DX009 (ip), vehicle: other 96 % of control | dose: 0.6 mg/kg/injection, schedule: Q01DX009 (ip), vehicle: other 119 % of control

N[C@@H](Cc1ccc(N(CCCl)CCCl)cc1)C(=O)O
inactive: [2] 102 % of control | [3] 100 % of control | dose: 0.6 mg/kg/injection, schedule: Q01DX009 (ip), vehicle: saline 100 % of control | [4] 111 % of control | [1] 105 % of control

COc1cccc2c1C(=O)c1c(O)c3c(c(O)c1C2=O)CC(O)(C(=O)CO)CC3OC1CC(N)C(O)C(C)O1 (stereo not given)
inactive: dose: 5.5 mg/kg/injection, schedule: Q01DX005 (ip), vehicle: water 100 % of control | dose: 52.5 mg/kg/injection, schedule: Q01DX005 (ip), vehicle: water 102 % of control

Cc1c2oc3c(C)ccc(C(=O)NC4C(=O)NC(C(C)C)C(=O)N5CCCC5C(=O)N(C)CC(=O)N(C)C(C(C)C)C(=O)OC4C)c3nc-2c(C(=O)NC2C(=O)NC(C(C)C)C(=O)N3CCCC3C(=O)N(C)CC(=O)N(C)C(C(C)C)C(=O)OC2C)c(N)c1=O (stereo not given) (I: TVP[Sar][NMeV] / II: TVP[Sar][NMeV]; ester I:1-I:C, II:1-II:C; linker I:N-II:N via Actinocin(9to1); configuration not given here)
inactive: dose: 0.64 mg/kg/injection, schedule: Q01DX009 (ip), vehicle: water 118 % of control | dose: 0.84 mg/kg/injection, schedule: Q01DX009 (ip), vehicle: water 124 % of control

Cc1c2oc3c(C)ccc(C(=O)N[C@@H]4C(=O)N[C@H](C(C)C)C(=O)N5CCC[C@H]5C(=O)N(C)CC(=O)N(C)[C@@H](C(C)C)C(=O)O[C@H]4C)c3nc-2c(C(=O)N[C@@H]2C(=O)N[C@H](C(C)C)C(=O)N3CCC[C@H]3C(=O)N(C)CC(=O)N(C)[C@@H](C(C)C)C(=O)O[C@H]2C)c(N)c1=O (I: [aThr][dV]P[Sar][NMeV] / II: [aThr][dV]P[Sar][NMeV]; ester I:1-I:C, II:1-II:C; linker I:N-II:N via Actinocin(9to1))
inactive: dose: 0.04 mg/kg/injection, schedule: Q02DX009 (ip), vehicle: water 100 % of control | dose: 0.05 mg/kg/injection, schedule: Q02DX009 (ip), vehicle: water 108 % of control | dose: 0.05 mg/kg/injection, schedule: Q03DX009 (ip), vehicle: water 110 % of control | dose: 0.05 mg/kg/injection, schedule: Q04DX009 (ip), vehicle: water 106 % of control | dose: 0.06 mg/kg/injection, schedule: Q02DX009 (ip), vehicle: water 100 % of control | dose: 0.08 mg/kg/injection, schedule: Q02DX009 (ip), vehicle: water 121 % of control | dose: 0.08 mg/kg/injection, schedule: Q04DX009 (ip), vehicle: water 110 % of control | dose: 0.1 mg/kg/injection, schedule: Q01DX001 (ip), vehicle: water 112 % of control | dose: 0.2 mg/kg/injection, schedule: Q01DX001 (ip), vehicle: water 110 % of control | dose: 0.4 mg/kg/injection, schedule: Q01DX001 (ip), vehicle: water 110 % of control

CO[C@H](C(=O)[C@@H](O)[C@@H](C)O)[C@@H]1Cc2cc3cc(OC4CC(OC5CC(O)C(O)C(C)O5)C(O)C(C)O4)c(C)c(O)c3c(O)c2C(=O)[C@H]1OC1CC(OC2CC(OC3CC(C)(O)C(O)C(C)O3)C(O)C(C)O2)C(O)C(C)O1 (stereo not given in full)
inactive: [5] 100 % of control | [6] 100 % of control | [7] 115 % of control | dose: 0.3 mg/kg/injection, schedule: Q01DX009 (ip), vehicle: water 86 % of control and 110 % of control | dose: 0.4 mg/kg/injection, schedule: Q01DX009 (ip), vehicle: water 108 % of control and 115 % of control | dose: 0.5 mg/kg/injection, schedule: Q01DX009 (ip), vehicle: water 103 % of control

CSCS(=O)C[C@H](CO)NC(=O)/C=C/c1c(C)[nH]c(=O)[nH]c1=O (stereo not given in full)
inactive: dose: 0.02 mg/kg/injection, schedule: Q01DX009 (ip), vehicle: water 89 % of control | [5] 97 % of control | [6] 91 % of control | [7] 94 % of control

S=P(N1CC1)(N1CC1)N1CC1
inactive: dose: 1.5 mg/kg/injection, schedule: Q01DX009 (ip), vehicle: water 110 % of control | dose: 2.5 mg/kg/injection, schedule: Q01DX009 (ip), vehicle: water 101 % of control | dose: 3.0 mg/kg/injection, schedule: Q01DX009 (ip), vehicle: water 92 % of control | dose: 5.0 mg/kg/injection, schedule: Q01DX009 (ip), vehicle: water 109 % of control | dose: 6.0 mg/kg/injection, schedule: Q01DX009 (ip), vehicle: water 105 % of control | dose: 10.0 mg/kg/injection, schedule: Q01DX009 (ip), vehicle: water 107 % of control | dose: 40.0 mg/kg/injection, schedule: Q01DX009 (ip), vehicle: water 110 % of control

O=[N+]([O-])c1ccc(Cl)cc1[N+](=O)[O-]
inactive: dose: 10.0 mg/kg/injection, schedule: Q02DX009 (ip), vehicle: water 121 % of control | dose: 20.0 mg/kg/injection, schedule: Q02DX009 (ip), vehicle: water 118 % of control | dose: 80.0 mg/kg/injection, schedule: Q02DX009 (ip), vehicle: water 119 % of control

Cc1c2ccncc2c(C)c2c1[nH]c1ccccc12
inactive: dose: 2.0 mg/kg/injection, schedule: Q01DX009 (ip), vehicle: other 119 % of control | dose: 4.0 mg/kg/injection, schedule: Q01DX009 (ip), vehicle: other 121 % of control | dose: 8.0 mg/kg/injection, schedule: Q01DX009 (ip), vehicle: other 111 % of control | dose: 16.0 mg/kg/injection, schedule: Q01DX009 (ip), vehicle: other 111 % of control
